Measured values: patent publication US10294202B2, “Pyrrolidinones as herbicides” (FMC Corporation, priority 2013, dated 2019)

Legend:
[1] = system: rice, transplanted; experiment: Test F flood (paddy) test; type: in vivo, Oryza sativa cv. Japonica—M202; conditions: 21 d, scale 0-100
Description: Three plastic pots (ca. 16-cm diameter) per rate were partially filled with sterilized Tama silt loam soil comprising a 35:50:15 ratio of sand, silt and clay and 2.6% organic matter. Separate plantings for each of the three pots were as follows. Seeds from the U.S. of monochoria (Monochoria vaginalis), sedge, umbrella (small-flower umbrella sedge, Cyperus difformis), bulrush, […] bulrush, Scirpus juncoides), and […] (purple […] coccinea), were planted into one 16-cm pot for each rate. Seeds from the U.S. of flatsedge, rice (rice flatsedge, Cyperus iria), sprangletop, Brdd. (bearded sprangletop, Leptochloa fascicularis), one stand of 9 or 10 water seeded rice seedlings (Rice, W.S. Jap, Oryza sativa cv. 'Japonica-[…]' or Rice, W.S. Ind, 'Indica'), and two stands of 3 or 4 seedlings of rice, transplanted (transplanted rice, Oryza sativa cv. 'Japonica-[…]') were planted into one 16-cm pot for each rate. Seeds from the U.S. of barnyardgrass (Echinochloa crus-galli), […] (common […], Alisma plantago-aquatica), and watergrass, late (late watergrass, Echinochloa oryzicola) were planted into one 16-cm pot for each rate. Plantings were sequential so that crop and weed species were at the 2.0 to 2.5-leaf stage at time of treatment. Potted plants were grown in a greenhouse with day/night temperature settings of 30/27° C., and supplemental balanced lighting was provided to maintain a 16-h photoperiod. Test pots were maintained in the greenhouse until test completion. At time of treatment, test pots were flooded to 3 cm above the soil surface, treated by application of test compounds directly to the paddy water, and then maintained at that water depth for the duration of the test. Effects of treatments on rice and weeds were visually evaluated by comparison to untreated controls after 21 d. Plant response ratings, summarized in Table F, are based on a scale of 0 to 100 where 0 is no effect and 100 is complete control. A dash (-) response means no test result.

[2] = system: barley, winter; experiment: Test D pre-/postemergence herbicide test; type: in vivo, Hordeum vulgare; conditions: for Plant response rating: Barley, Winter, scale 0 to 100; for Plant response rating, Barley, Winter: scale 0 to 100 (0 no effect, 100 complete control)
Description: (§1) Seeds of plant species selected from bluegrass (annual bluegrass, Poa annua), blackgrass (Alopecurus myosuroides), canarygrass (littleseed canarygrass, Phalaris minor), chickweed (common chickweed, Stellaria media), galium (catchweed bedstraw, Galium aparine), bromegrass, downy (downy bromegrass, Bromus tectorum), field poppy (Papaver rhoeas), field violet (Viola arvensis), foxtail, green (green foxtail, Setaria viridis), deadnettle (henbit deadnettle, Lamium amplexicaule), ryegrass, Italian (Italian ryegrass, Lolium multiflorum), kochia (Kochia scoparia), lambsquarters (Chenopodium album), oilseed rape (Brassica napus), pigweed (Amaranthus retroflexus), chamomile (scentless chamomile, Matricaria inodora), Russian thistle (Salsola kali), speedwell (bird's-eye speedwell, Veronica persica), barley, spring (spring barley, Hordeum vulgare), wheat, spring (spring wheat, Triticum aestivum), buckwheat, wild (wild buckwheat, Polygonum convolvulus), mustard, wild (wild mustard, Sinapis arvensis), oat, wild (wild oat, Avena fatua), radish, wild (wild radish, Raphanus raphanistrum), […]), barley, winter (winter barley, Hordeum vulgare), and wheat, winter (winter wheat, Triticum aestivum) were planted into a silt loam soil and treated preemergence with test chemicals formulated in a non-phytotoxic solvent mixture which included a surfactant. At the same time, these species were planted in pots containing Redi-Earth® planting medium (Scotts Company, 14111 Scottslawn Road, Marysville, Ohio 43041) comprising spaghnum peat moss, vermiculite, wetting agent and starter nutrients and treated with postemergence applications of the test chemicals formulated in the same manner. Plants ranged in height from 2 to 18 cm (1- to 4-leaf stage). Treated plants and controls were maintained in a controlled growth environment for 7 to 21 days after which time all species were compared to controls and visually evaluated. Plant response ratings, summarized in Table D, are based on a scale of 0 to 100 where 0 is no effect and 100 is complete control. A dash (-) response means no test result.

[3] = system: barley, spring; experiment: Test D pre-/postemergence herbicide test; type: in vivo, Hordeum vulgare; conditions: for Plant response rating: Barley, Spring, scale 0 to 100; for Plant response rating, Barley, Spring: scale 0 to 100 (0 no effect, 100 complete control)
Description: as §1

[4] = system: field violet; experiment: Test D pre-/postemergence herbicide test; type: in vivo, Viola arvensis; conditions: for Plant response rating: Field Violet, scale 0 to 100; for Plant response rating, Field Violet: scale 0 to 100 (0 no effect, 100 complete control)
Description: as §1

Compound | Plant response rating, Rice, Transplanted ([1]; 250 g ai/ha) | Plant response rating, Rice, Transplanted ([1]; 500 g ai/ha) | Plant response rating ([2]; Postemergence, 16 g ai/ha) | Plant response rating ([2]; Postemergence, 31 g ai/ha) | Plant response rating ([2]; Postemergence, 62 g ai/ha) | Plant response rating ([2]; Postemergence, 125 g ai/ha) | Plant response rating ([2]; Postemergence, 250 g ai/ha) | Plant response rating, Barley, Winter ([2]; Preemergence, 31 g ai/ha) | Plant response rating, Barley, Winter ([2]; Preemergence, 62 g ai/ha) | Plant response rating ([2]; Preemergence, 250 g ai/ha) | Plant response rating ([3]; Postemergence, 16 g ai/ha) | Plant response rating ([3]; Postemergence, 31 g ai/ha) | Plant response rating ([3]; Postemergence, 62 g ai/ha) | Plant response rating ([3]; Postemergence, 125 g ai/ha) | Plant response rating ([3]; Postemergence, 250 g ai/ha) | Plant response rating, Barley, Spring ([3]; Preemergence, 31 g ai/ha) | Plant response rating, Barley, Spring ([3]; Preemergence, 62 g ai/ha) | Plant response rating ([3]; Preemergence, 250 g ai/ha) | Plant response rating ([4]; Postemergence, 16 g ai/ha) | Plant response rating ([4]; Postemergence, 31 g ai/ha) | other results
O=C1NCC(c2cccc(C(F)(F)F)c2)C1C(=O)Nc1ccccc1F (racemic) [Compound 3] | 0 | 0 |  |  |  |  |  |  |  |  |  |  |  |  |  |  |  |  |  |  | 
O=C1NCC(c2ccc(F)c(F)c2)C1C(=O)Nc1cccc(F)c1 (racemic) [Compound 12] |  |  | 0 | 0 | 0 | 0 | 0 | 0 | 0 | 0 | 0 | 0 | 5 | 5 | 5 | 0 | 0 | 0 | 0 | 0 | Plant response rating, Barley, Winter ([2]; Preemergence, 16 g ai/ha): 0; Plant response rating ([2]; Preemergence, 125 g ai/ha): 0; Plant response rating, Barley, Spring ([3]; Preemergence, 16 g ai/ha): 0; Plant response rating ([3]; Preemergence, 125 g ai/ha): 0; Plant response rating ([4]; Postemergence, 62 g ai/ha): 30; Plant response rating ([4]; Postemergence, 125 g ai/ha): 35; Plant response rating ([4]; Postemergence, 250 g ai/ha): 40; Plant response rating, Field Violet ([4]; Preemergence, 31 g ai/ha): 0; Plant response rating, Field Violet ([4]; Preemergence, 62 g ai/ha): 0; Plant response rating, Field Violet ([4]; Preemergence, 16 g ai/ha): 0; Plant response rating ([4]; Preemergence, 125 g ai/ha): 0; Plant response rating ([4]; Preemergence, 250 g ai/ha): 0
O=C1NCC(c2cc(F)c(F)c(F)c2)C1C(=O)Nc1ccccc1C(F)(F)F (racemic) [Compound 33] |  |  | 0 | 0 | 0 | 0 | 0 |  |  |  | 0 | 0 | 0 | 0 | 0 |  |  |  | 0 | 0 | Plant response rating ([4]; Postemergence, 62 g ai/ha): 0; Plant response rating ([4]; Postemergence, 125 g ai/ha): 0; Plant response rating ([4]; Postemergence, 250 g ai/ha): 0
O=C1NCC(c2cc(F)c(F)c(F)c2)C1C(=O)Nc1ccccc1F (racemic) [Compound 34] |  |  | 0 | 0 | 0 | 0 | 0 |  |  |  | 0 | 0 | 0 | 0 | 0 |  |  |  | 0 | 0 | Plant response rating ([4]; Postemergence, 62 g ai/ha): 0; Plant response rating ([4]; Postemergence, 125 g ai/ha): 0; Plant response rating ([4]; Postemergence, 250 g ai/ha): 20
O=C1NCC(c2cccc(C(F)(F)F)c2)C1C(=O)Nc1ccc(F)cc1F (racemic) [Compound 207] | 0 | 0 |  |  |  |  |  | 5 | 10 | 45 |  |  |  |  |  | 0 | 5 | 25 |  |  | Plant response rating, Rice, Transplanted ([1]; 125 g ai/ha): 0; Plant response rating, Barley, Winter ([2]; Preemergence, 125 g ai/ha): 25; Plant response rating, Barley, Spring ([3]; Preemergence, 125 g ai/ha): 20; Plant response rating, Field Violet ([4]; Preemergence, 31 g ai/ha): 10; Plant response rating, Field Violet ([4]; Preemergence, 62 g ai/ha): 15; Plant response rating, Field Violet ([4]; Preemergence, 125 g ai/ha): 35; Plant response rating ([4]; Preemergence, 250 g ai/ha): 35
O=C1NCC(c2ccc(C(F)(F)F)c(F)c2)C1C(=O)Nc1cccc(F)c1F (racemic) [Compound 247] | 0 | 0 |  |  |  |  |  |  |  |  |  |  |  |  |  |  |  |  |  |  | Plant response rating, Rice, Transplanted ([1]; 125 g ai/ha): 0; Plant response rating, Rice, Transplanted ([1]; 1000 g ai/ha): 10; Plant response rating, Rice, Transplanted ([1]; 2000 g ai/ha): 15
O=C1NCC(c2cccc(C(F)(F)F)c2)C1C(=O)Nc1cccc(F)c1F (centres unmarked) [Compound 241] |  |  |  |  |  |  |  | 10 | 10 | 65 |  |  |  |  |  | 0 | 10 | 35 |  |  | Plant response rating, Barley, Winter ([2]; Preemergence, 125 g ai/ha): 30; Plant response rating, Barley, Spring ([3]; Preemergence, 125 g ai/ha): 20; Plant response rating, Field Violet ([4]; Preemergence, 31 g ai/ha): 15; Plant response rating, Field Violet ([4]; Preemergence, 62 g ai/ha): 15; Plant response rating, Field Violet ([4]; Preemergence, 125 g ai/ha): 20; Plant response rating ([4]; Preemergence, 250 g ai/ha): 30
CN1CC(c2ccc(F)cc2)C(C(=O)Nc2cccc(F)c2F)C1=O (centres unmarked) [Compound 271] | 0 | 15 |  |  |  |  |  |  |  |  |  |  |  |  |  |  |  |  |  |  | Plant response rating, Rice, Transplanted ([1]; 64 g ai/ha): 0; Plant response rating, Rice, Transplanted ([1]; 125 g ai/ha): 0
